From patent US11136299B2, “Benzodiazepine derivatives for use in the treatment of Chlamydiales infections” (priority 2015, dated 2021) come the findings set out here.

Holding throughout (assay type): cell-based
In assay [1] the test system is Chlamydia trachomatis (Ctr) strain L2/434/Bu. The assay is described as follows: Ctr infectivity assay, progeny infection, cellular protection by GFP microscopy quantification. To be noted: HeLa229 cells, Ctr MOI1, progeny infection fixed 48 hpi, versus solvent-treated cells; for inhibition at 25 µM: Chlamydia trachomatis, HeLa 229, 48 h; for Cellular protection at 75 μM (%): 75 μM compound. The source says:
(§1) Chlamydia trachomatis (Ctr). Laboratory-adapted strain L2/434/Bu (ATCC VR902B) was used in assays. Full biological and genetic information is available for this strain including complete genome sequence and defined proteome. This strain has a relatively low particle to infectivity ratio, perform efficient cell infection and has a higher viability than standard genital tract isolates with faster developmental cycle. Culture conditions have been described in (Wang Y., Kahane S., Cutcliffe L. T., Skilton R. J., Lambden P. R., Clarke I. N. Development of a transformation system for Chlamydia trachomatis: Restoration of glycogen biosynthesis by acquisition of a plasmid shuttle vector. PLoS Pathogen, 2011, 7(9): e1002258. doi: 10.1371/journal.ppat.1002258).
Compound application during Chlamydia trachomatis infection. HeLa229 cells were pretreated with Retro-1 and Retro-1 derivatives in concentrations of 25 μM and 75 μM for 1 hour until Chlamydia trachomatis (MOI1) were added to the cells. Compounds were present during infection. To obtain progeny infection, compound treated cells were lysed 24 h post infection (hpi) and lysate was used to infect fresh HeLa 229 cells. Infected cells of progeny infection were fixed with 4% Paraformaldehyde 48 hpi. Cells were stained for DAPI and Chlamydia trachomatis were detected by GFP-signal. Images are representative of n=2 independent experiments. Quantification of infected cells by Chlamydia trachomatis was realized from microscopy images with Image J software (FIG. 7) and cellular protection by compounds at 25 μM and 75 μM was then determined (Table 1) by comparison with solvent-treated cells (control) with the following equation: […]

The test system is the same in assay [2]. The assay is described as follows: Ctr infectivity assay, primary and progeny infection, HSP60 immunoblot. To be noted: Retro-1 50-75 μM in the primary infection; HeLa229 cells; FIG. 6.
Source text: as §1, with “performs” for “perform”
Compound application during Ctr infection. HeLa229 cells were pretreated with Retro-1 in concentrations of 25, 50 and 75 μM for 30 min until Ctr (MOI1) were added to the cells. Retro-1 was present during infection.
Cells with primary infection were lysed 24 h post infection (hpi). To obtain progeny infection compound treated cells were lysed 48 hpi and lysate was used to infect fresh HeLa229 cells. Progeny infection was lysed 24 hpi and analyzed together with primary infection samples by immunoblot. Chlamydial growth was detected with antibodies against chlamydial HSP60 protein and Actin was used as loading control (FIG. 6).
(In general: Immunoblotting shows a protein as a band on a membrane.)

The test system of assay [3] is Simkania negevensis (Sn) strain Z. The assay is described as follows: Sn infectivity assays (primary and progeny infection) in HeLa229 cells. To be noted: for effect on primary and progeny infection for Simkania / concentration at which maximal inhibition of Sn replication was observed: HeLa cells; for effect on primary and progeny infection for Simkania: GroEL western, inclusion size, inclusion number, microscopy; for concentration at which maximal inhibition of Sn replication was observed: tested at 25 and 75 μM, FIGS. 1-4; for effect on Sn inclusions (transmission electron microscopy): infected HeLa cells versus DMSO-treated control, FIG. 5. As for the experimental part:
Simkania negevensis (Sn) strain Z (ATCC VR-1471) was prepared as described previously (Mehlitz A, Karunakaran K, Herweg J A, Krohne G, van de Linde S, Rieck E, Sauer M, Rudel T. The chlamydial organism Sn forms ER vacuole contact sites and inhibits ER-stress. Cell Microbiol 2014; 16(8):1224-1243).
Briefly, HeLa229 cells were grown to 50-70% confluence, were inoculated with Sn in RPMI1640 with 5% FBS, for 6 h at 35° C. in a humidified incubator at 5% CO2. Medium was replaced by infection medium (RPMI1640, Glutamax, 5% FBS, w/o HEPES) and growth was allowed for 3 days. Cells were mechanically detached and bacteria were released using ˜2-5 mm glass beads (Carl Roth). Low speed supernatant (600×g, 4° C. and 5 min) was subjected to high-speed centrifugation (20,000×g, 4° C. and 30 min) to pellet bacteria. Bacteria were washed twice with 5 ml SPG (250 mM sucrose, 50 mM sodium phosphate, 5 mM glutamate, pH 7.4), aliquoted and stored at −80° C. in SPG.
40,000 Hela cells were seeded in 12-well cluster plates, inhibitor-treated and infected as indicated in the respective experiment.
For infectivity assays cells were either fixed and stained at indicated time points (FIG. 2, 4; inclusion formation/primary infection) or bacteria were released via one freeze thaw cycle (−70° C./37° C.) followed by mechanical release through pipetting and transfer to fresh HeLa229 cells (1:25-1:50, progeny/infectivity). Cells were centrifuged for 1 h at 35° C. and medium exchanged to infection medium. Progeny was fixed at day 3 post infection and processed for staining (FIG. 3) or harvested for immunoblotting (FIG. 1). Infectivity assays were imaged on an automated fluorescence microscope Leica DMIR (FIG. 4). Numbers and average sizes of the SCV as well as host cell numbers were determined via GroEL and DAPI staining and images were analysed and quantified using FIJI (ImageJ) and Excel (Microsoft).
In progeny assay, bacteria are first grown in Hela299 cells treated with inhibitors, Retro-1 and VP-184 (25 and 75 μM), and the infectious particles from this primary infection are applied to fresh cells in the absence of inhibitor to measure the bacterial load (GroEL immunoblot) and inclusion formation (immunofluorescence microscopy).

Structures are written as SMILES.

The inhibition is the relative decrease from the control value, in per cent. With `O=C1CN=C(c2ccccc2)c2cc(Br)cc(Br)c2N1` [HA061, 7,9-dibromo-5-phenyl-1,3-dihydro-2H-benzo[e][1,4]diazepin-2-one], the inhibition at 25 µM in assay [1] (25 μM compound) was 57.8%.

On to `O=C1CN=C(c2ccccc2Cl)c2cc(Cl)ccc2N1` [HA197, 7-chloro-5-(2-chlorophenyl)-1,3-dihydro-2H-benzo[e][1,4]diazepin-2-one], for which the “Cellular protection at 75 μM (%)” value in assay [1] is reported as 84.3%. Also, 25 µM produced 90.6% inhibition in assay [1] (25 μM compound).

Molecule `CN1C(=O)CN=C(c2ccccc2Cl)c2cc(Cl)ccc21` [HA200, 7-chloro-5-(2-chlorophenyl)-1-methyl-1,3-dihydro-2H-benzo[e][1,4]diazepin-2-one] registered an inhibition at 25 µM in assay [1] (25 μM compound) of 47%.

Regarding `O=C1CN(C2CCCC2)C(c2ccccc2)c2cc(Br)ccc2N1` (stereo not drawn) [HA229, 7-bromo-4-cyclopentyl-5-phenyl-1,3,4,5-tetrahydro-2H-benzo[e][1,4]diazepin-2-one], testing at 25 µM in assay [1] (25 μM compound) gave an inhibition of 20.2%.

In the case of `CC1CCC(N2CC(=O)Nc3ccc(Br)cc3C2c2ccccc2)C1` (stereo not drawn) [HA280, 7-bromo-4-(3-methylcyclopentyl)-5-phenyl-1,3,4,5-tetrahydro-2H-benzo[e][1,4]diazepin-2-one], in assay [1] (25 μM compound), the “Cellular protection at 25 μM (%)” value is given as “full protection” and the inhibition at 25 µM worked out at 100%.

With `CCC(=O)N1CC(=O)Nc2ccc(Br)cc2C1c1ccccc1` (stereo not drawn) [Retro-1, 7-bromo-5-phenyl-4-propionyl-1,3,4,5-tetrahydro-2H-benzo[e][1,4]diazepin-2-one], the “Cellular protection at 75 μM (%)” value in assay [1] is 2.4%. In assay [1] (25 μM compound), this molecule gave an inhibition at 25 µM of 26.5%. Moreover, the “infectivity in the Ctr progeny (HSP60 immunoblot)” value in assay [2] is on record as “significant reduced infectivity in the progeny”. Besides, in assay [3], the “effect on primary and progeny infection for Simkania” value was “inhibitor effect on primary and progeny infection”; the “concentration at which maximal inhibition of Sn replication was observed” value is 75 µM; the “effect on Sn inclusions (transmission electron microscopy)” value is listed as “inclusions were smaller”.

For the molecule `O=C1CN=C(c2ccccc2)c2cc(Br)ccc2N1` [VP173, 7-bromo-5-phenyl-1,3-dihydro-2H-benzo[e][1,4]diazepin-2-one], the figures for the “Cellular protection at 75 μM (%)” value in assay [1] and in assay [1] (listed as VP 173) were 100% and “full protection”, respectively. The inhibition at 25 µM in assay [1] (25 μM compound) was 61.5%.

For the molecule `O=C1CNC(c2ccccc2)c2cc(Br)ccc2N1` (stereo not drawn) [VP174, 7-bromo-5-phenyl-1,3,4,5-tetrahydro-2H-benzo[e][1,4]diazepin-2-one], the “Cellular protection at 75 μM (%)” value in assay [1] is reported as 52.8%. For the same molecule, the inhibition at 25 µM in assay [1] (25 μM compound) is 27.6%.

Turning to `CCCN1CC(=O)Nc2ccc(Br)cc2C1c1ccccc1` (stereo not drawn) [VP-184, 7-bromo-5-phenyl-4-propyl-1,3,4,5-tetrahydro-2H-benzo[e][1,4]diazepin-2-one], in assay [3], the “effect on primary and progeny infection for Simkania” value is “inhibitor effect on primary and progeny infection”; the “concentration at which maximal inhibition of Sn replication was observed” value amounted to 25 µM; the “effect on Sn inclusions (transmission electron microscopy)” value was “strongly reduced Sn inclusion formation, size, numbers and Sn replication”.
